One series concerns the target T1, RIPK1 (Mus musculus, UniProt Q60855).
T1 sequence (Q60855 1-656): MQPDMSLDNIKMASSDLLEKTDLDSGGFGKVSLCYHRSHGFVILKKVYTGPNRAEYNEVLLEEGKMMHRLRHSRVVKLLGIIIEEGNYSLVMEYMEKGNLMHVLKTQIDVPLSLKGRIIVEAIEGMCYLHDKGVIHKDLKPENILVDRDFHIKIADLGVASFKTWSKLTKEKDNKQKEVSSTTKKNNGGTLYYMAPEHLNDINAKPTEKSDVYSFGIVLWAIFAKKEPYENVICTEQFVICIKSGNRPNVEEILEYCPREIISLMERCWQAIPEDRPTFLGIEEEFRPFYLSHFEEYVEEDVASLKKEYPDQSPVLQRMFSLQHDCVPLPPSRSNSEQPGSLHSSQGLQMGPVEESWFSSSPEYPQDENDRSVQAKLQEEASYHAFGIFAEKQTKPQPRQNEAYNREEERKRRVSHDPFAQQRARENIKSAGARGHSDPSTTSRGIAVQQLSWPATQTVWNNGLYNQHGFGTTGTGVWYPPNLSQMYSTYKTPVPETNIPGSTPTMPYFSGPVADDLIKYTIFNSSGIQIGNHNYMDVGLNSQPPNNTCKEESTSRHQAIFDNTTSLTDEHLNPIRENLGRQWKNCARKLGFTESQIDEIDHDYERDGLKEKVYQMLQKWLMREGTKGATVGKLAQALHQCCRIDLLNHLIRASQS
Put plainly: In vivo pharmacodynamics: RIPK1 levels in tissues. The arrangement: observed a 60% reduction in RIPK1 levels in tumors; from tissue; host or cells: tumors, spleen, lymph nodes, PBMCs, lungs, bone marrow of C57BL/6J mice; species or system C57BL/6J mice. On the procedure: (§1) Figure 4 LD4172 synergizes with Anti-PD1 to inhibit tumor growth. A, Plasma concentrations of LD4172 in C57BL/6J mice administered 1 mg/kg intravenously (i.v.) or 10 mg/kg intraperitoneally (i.p.) (n=4). B, Representative immunoblots of RIPK1 in different tissues of C57BL/6J mice treated with LD4172 (n=3–4). C, Densitometric analysis of RIPK1 protein levels in different tissues (n=3 or 4). D, Representative immunoblots of RIPK1 levels of B16F10 cells transduced with gRNA specific for RIPK1 or non-targetable control (sgNC). E, B16F10-RIPK1-KO tumors sensitized to anti-PD1 treatment: 3×10^5 B16F10 cells transduced with gRNA specific for RIPK1 or non-targetable control (sgNC) were inoculated into C57BL/6J mice. After seven days, mice with measurable tumors (~100 mm3) were randomly treated with or without anti-PD1 in vivo (100 μg per dose, i.p., every three days, n=8). F, Tumor growth curve of mice with B16F10 tumors treated with LD4172 and/or anti-PD1 (n=8). C57B6/J mice were subcutaneously inoculated with 3×10^5 B16F10 tumor cells. After seven days (tumor size ~ 100 mm3), mice were treated every three days with anti- PD1 (100 μg per dose, i.p.), daily with LD4172 (20 mg/kg, i.p.), a combination of LD4172 and anti-PD1 (same dose as their individual doses), or their corresponding vehicle control. G, Kaplan-Meier survival curve for all experimental groups. H, Final tumor weight (g) from F after 22d of treatment (n=8). I, Representative images of B16F10 tumors collected at the end of treatment. J, Mouse body weight (n=8). K, Tumor growth curve of mice with B16F10 tumors treated with T2I and/or anti-PD1 (n=8). The experimental conditions and treatment regimens were the same as F except using the RIPK1 kinase inhibitor T2I (20 mg/kg, i.p.) to replace LD4172. Representative data from at least three independent experiments are shown. Data are expressed as the mean ± SEM. * p<0.05; ** p<0.01; *** p<0.001, **** p<0.0001, respectively. ns, indicates no statistical significance.
To investigate the pharmacodynamics of LD4172 in vivo, we administered LD4172 via the i.p. route and observed a 60% reduction in RIPK1 levels in tumors (20 mg/kg, b.i.d., i.p.) (Fig. 4B–C).

Series [1] in a line: Pharmacokinetics in C57BL/6J mice. Conditions: mouse, plasma. Type of series: in vivo. On the procedure: Next, we evaluated the pharmacokinetics (PK) of LD4172 in C57BL/6J (B6) mice (Fig. 4A).
as §1

In another series the target is hERG channel (Homo sapiens, UniProt Q12809). Put plainly: hERG channel inhibition assay. Conditions: at 30 μM.

Structures are written as SMILES. Where two headings read alike, the source gives them in different places.

Sequence of hERG channel (Q12809 whole entry): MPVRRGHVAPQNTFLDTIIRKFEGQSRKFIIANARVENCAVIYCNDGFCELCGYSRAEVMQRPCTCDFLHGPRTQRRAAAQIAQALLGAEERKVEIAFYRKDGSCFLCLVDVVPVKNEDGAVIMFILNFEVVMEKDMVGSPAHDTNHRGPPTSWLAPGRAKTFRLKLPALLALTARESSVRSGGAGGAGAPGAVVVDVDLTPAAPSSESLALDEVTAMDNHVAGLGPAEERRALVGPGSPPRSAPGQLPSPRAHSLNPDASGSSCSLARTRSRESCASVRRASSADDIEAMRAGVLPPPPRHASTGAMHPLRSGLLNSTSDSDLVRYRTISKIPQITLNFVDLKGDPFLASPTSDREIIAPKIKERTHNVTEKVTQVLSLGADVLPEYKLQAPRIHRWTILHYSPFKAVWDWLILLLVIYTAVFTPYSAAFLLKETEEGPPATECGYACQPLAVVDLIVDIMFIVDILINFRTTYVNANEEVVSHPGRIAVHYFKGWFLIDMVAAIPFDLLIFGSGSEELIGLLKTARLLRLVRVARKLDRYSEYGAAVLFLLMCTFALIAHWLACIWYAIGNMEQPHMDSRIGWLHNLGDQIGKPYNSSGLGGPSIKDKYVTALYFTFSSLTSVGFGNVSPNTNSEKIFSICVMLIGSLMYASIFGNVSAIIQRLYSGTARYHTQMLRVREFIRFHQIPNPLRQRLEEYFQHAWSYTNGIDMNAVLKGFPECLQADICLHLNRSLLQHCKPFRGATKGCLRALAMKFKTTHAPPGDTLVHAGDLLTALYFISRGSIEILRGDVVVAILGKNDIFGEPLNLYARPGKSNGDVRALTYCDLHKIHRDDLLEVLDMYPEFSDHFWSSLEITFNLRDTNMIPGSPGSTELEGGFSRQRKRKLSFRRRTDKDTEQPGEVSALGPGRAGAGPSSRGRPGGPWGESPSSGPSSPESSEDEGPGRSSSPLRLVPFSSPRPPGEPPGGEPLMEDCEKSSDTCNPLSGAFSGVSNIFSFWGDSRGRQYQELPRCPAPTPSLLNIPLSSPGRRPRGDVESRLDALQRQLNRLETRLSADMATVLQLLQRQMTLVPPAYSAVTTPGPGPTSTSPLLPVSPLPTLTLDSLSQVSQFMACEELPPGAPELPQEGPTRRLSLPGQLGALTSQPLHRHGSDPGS

Turning to `Cc1ncsc1-c1ccc([C@H](C)NC(=O)[C@@H]2C[C@@H](O)CN2C(=O)[C@@H](NC(=O)CCCCCCCCCCC(=O)NCCCn2cc(-c3ccc4c(c3)CCN4C(=O)Cc3cccc(OC(F)(F)F)c3)c3c(N)ncnc32)C(C)(C)C)cc1` [LD4172], the “reduction in RIPK1 levels in tumors” value at RIPK1 (20 mg/kg, b.i.d., i.p.) is given as 60%. Further, the “RIPK1 degradation in lymph nodes, PBMCs, lungs, and bone marrow” value at RIPK1 (i.p.) is “no significant RIPK1 degradation”. Also, the “RIPK1 degradation in the spleen” value at RIPK1 (i.p.) is given as “less than 50%”. Also, the “RIPK1 degradation in tumors, intratumoral administration” value at RIPK1 (intratumoral vs i.p.) is “improved RIPK1 degradation in the tumors”. The bioavailability (usually the share of a dose that reaches the circulation, judged against a reference dose that is usually intravenous) in series [1] (intraperitoneal, i.p. 10 mg/kg vs i.v. 1 mg/kg) is 39%. The AUC in series [1] (ip, 10 mg/kg i.p., read-out: AUC) is 2.7 µM·h; in series [1] (iv, 1 mg/kg i.v., read-out: area under the concentration-time curve (AUC)), 0.7 ± 0.07 µM·h. The Cmax in series [1] (ip, 10 mg/kg i.p., read-out: Cmax) was 2.9 µM; in series [1] (iv, 1 mg/kg i.v., read-out: maximum plasma concentration (Cmax)), 6.3 ± 0.8 µM. Moreover, the half-life is 1.5 h in series [1] (ip, 10 mg/kg i.p., read-out: t1/2 (converted)) and 3.3 ± 2.1 h in series [1] (iv, 1 mg/kg i.v., read-out: half-life (t1/2) (converted)). In series [1] (iv, 1 mg/kg i.v.), the clearance (usually the volume of plasma or blood freed of the substance per unit of time) was 19.8 ± 1.8 mL/min/kg. The Vd (in general, the apparent volume that relates the amount in the body to the concentration in plasma or blood) in series [1] (iv, 1 mg/kg i.v., read-out: volume of distribution (Vd)) is 1.1 ± 0.2 L/kg. Also, at hERG channel, the “inhibition of hERG” value is given as “no obvious inhibition”.

For the origin of these results see paper PMC11042424, “Development of a First-in-Class RIPK1 Degrader to Enhance Antitumor Immunity” (Research Square, 2024).
